For data set [1], the target named is T1, Aβ1–42 (Homo sapiens, UniProt P05067). Nature of the data set: Cu^2+-induced Aβ1–42 aggregation, ThT fluorescence. It is filed as biochemical. As to conditions: tested compounds and Aβ1–42 25 μM.
Description: Curcumin was also tested as a referenced compound.
(§1) The Thioflavin T-based flurometric assay was employed to test the inhibition potency on self-induced/Cu^2+-induced Aβ1-42 aggregation.
Data set [2] has as its target T1, Aβ1–42. Nature of the data set: Self-induced Aβ1–42 aggregation, Thioflavin T fluorescence. It is filed as biochemical. Conditions: tested compounds and Aβ1–42 25 μM.
Excerpt: as §1
The target in another data set is T2, ratAChE (Rattus norvegicus, UniProt P37136).
T2 construct: AChE from 5% rat cortex homogenate or human erythrocytes (Sigma Co.); from tissue; host or cells: 5% rat cortex homogenate
T2 sequence (P37136 32-614): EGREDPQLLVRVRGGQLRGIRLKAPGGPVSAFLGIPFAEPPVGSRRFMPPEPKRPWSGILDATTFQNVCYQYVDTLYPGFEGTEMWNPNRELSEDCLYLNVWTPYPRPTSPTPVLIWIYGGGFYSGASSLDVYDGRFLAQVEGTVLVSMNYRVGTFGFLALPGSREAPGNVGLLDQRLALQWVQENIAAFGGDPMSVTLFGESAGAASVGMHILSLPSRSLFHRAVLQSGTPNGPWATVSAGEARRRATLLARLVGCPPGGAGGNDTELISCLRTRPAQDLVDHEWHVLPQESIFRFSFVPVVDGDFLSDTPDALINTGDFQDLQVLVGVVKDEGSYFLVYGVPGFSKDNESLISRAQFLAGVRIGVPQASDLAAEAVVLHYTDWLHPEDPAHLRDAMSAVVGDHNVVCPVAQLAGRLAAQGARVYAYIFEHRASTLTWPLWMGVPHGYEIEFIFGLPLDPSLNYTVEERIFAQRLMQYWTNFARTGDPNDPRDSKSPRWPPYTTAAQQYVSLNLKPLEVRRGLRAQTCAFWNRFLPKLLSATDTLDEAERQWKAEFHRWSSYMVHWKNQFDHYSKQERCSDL
Kind of data set: biochemical. As to conditions: for SI: Selectivity Index = IC50 (BuChE)/IC50 (AChE), rat enzymes; for IC50: from 5% rat cortex homogenate.

In the next data set the target is T3, ratBuChE (Rattus norvegicus, UniProt Q9JKC1).
T3 construct: BuChE from rat serum or human serum (Sigma Co.); from tissue; host or cells: rat serum
T3 sequence (Q9JKC1 24-597): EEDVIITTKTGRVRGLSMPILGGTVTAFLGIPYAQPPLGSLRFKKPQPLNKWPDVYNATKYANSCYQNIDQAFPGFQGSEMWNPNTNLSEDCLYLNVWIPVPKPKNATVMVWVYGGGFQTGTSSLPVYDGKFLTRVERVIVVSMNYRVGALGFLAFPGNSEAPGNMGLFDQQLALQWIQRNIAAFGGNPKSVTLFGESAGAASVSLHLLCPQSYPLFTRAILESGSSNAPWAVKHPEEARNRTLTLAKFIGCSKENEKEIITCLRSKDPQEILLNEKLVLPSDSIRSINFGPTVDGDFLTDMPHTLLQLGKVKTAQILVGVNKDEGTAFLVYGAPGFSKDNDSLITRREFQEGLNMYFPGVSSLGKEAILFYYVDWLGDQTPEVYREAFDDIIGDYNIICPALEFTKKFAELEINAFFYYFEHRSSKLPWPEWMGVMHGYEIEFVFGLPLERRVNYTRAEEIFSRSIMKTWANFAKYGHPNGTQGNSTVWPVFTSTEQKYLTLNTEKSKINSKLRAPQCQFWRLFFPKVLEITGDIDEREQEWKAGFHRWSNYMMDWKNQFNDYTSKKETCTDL
Kind of data set: ratBuChE inhibition, modified Ellman's method. It is filed as biochemical.

The next data set concerns the target T4, huBuChE (Homo sapiens, UniProt P06276).
T4 construct: BuChE from rat serum or human serum (Sigma Co.); purchased Sigma Co; host or cells: human serum
Kind of data set: biochemical. Conditions: from human serum; read-out: IC50 ± SD huBuChE. It is filed as biochemical.

The conditions of data set [3]: for ORAC: Trolox as standard.
Description: The skeleton compounds naringenin and apigenin were also evaluated for comparison purposes, and vitamin E analogue Trolox was used as a standard.
The antioxidant potency of target compounds was tested using an oxygen radical absorbance capacity fluorescein (ORAC-FL) assay.
In the next data set the target is huAChE (Homo sapiens, UniProt P22303). Kind of data set: biochemical. It is filed as biochemical. More on the design: AChE from 5% rat cortex homogenate or human erythrocytes (Sigma Co.); purchased Sigma Co; host or cells: human erythrocytes. Conditions: for SI: Selectivity Index = IC50 (BuChE)/IC50 (AChE), human enzymes; for IC50: from human erythrocytes, read-out: IC50 ± SD huAChE.
Chain of huAChE (P22303 32-617 isoform P22303-2 limits assumed): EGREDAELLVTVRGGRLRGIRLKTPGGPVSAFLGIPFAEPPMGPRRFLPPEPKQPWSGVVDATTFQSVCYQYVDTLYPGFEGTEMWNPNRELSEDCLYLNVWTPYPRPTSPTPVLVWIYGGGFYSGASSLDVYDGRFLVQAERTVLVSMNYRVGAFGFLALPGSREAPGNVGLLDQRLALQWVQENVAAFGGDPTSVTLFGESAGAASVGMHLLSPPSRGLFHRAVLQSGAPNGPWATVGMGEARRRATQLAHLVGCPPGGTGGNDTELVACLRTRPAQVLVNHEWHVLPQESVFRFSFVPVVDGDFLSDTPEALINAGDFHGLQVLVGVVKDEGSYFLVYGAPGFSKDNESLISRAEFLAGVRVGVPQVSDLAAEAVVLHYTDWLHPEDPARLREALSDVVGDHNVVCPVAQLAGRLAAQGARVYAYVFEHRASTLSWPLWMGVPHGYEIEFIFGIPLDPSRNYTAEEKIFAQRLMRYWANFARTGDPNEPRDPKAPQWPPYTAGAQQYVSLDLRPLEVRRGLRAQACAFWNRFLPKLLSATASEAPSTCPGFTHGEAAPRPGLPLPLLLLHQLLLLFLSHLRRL

For data set [4] the following is noted: cited from earlier work.
Another data set concerns PC12 cells. Kind of data set: Neuroprotective effect on H2O2-induced PC12 cells injury, MTT assay. It is filed as cell-based. As to conditions: compound 100 μM, 100 μM H2O2, PC12 cells. A general note: Formazan colour is commonly taken as a measure of viable cells.
The test system of data set [5] is scopolamine-induced mice memory impairment. Kind of data set: Step-down passive avoidance task. Conditions: 5 mg/kg, scopolamine 3 mg/kg.
Description: Sixty mice were randomly divided into six groups. […] After 30 min, memory impairment was induced by administering scopolamine (3 mg/kg).
Another data set is described as follows: in vitro. Conditions: PAMPA. For orientation: PAMPA measures passive passage across an artificial lipid membrane.

Like-named read-outs stand apart in the source and are kept apart here.

T4 sequence (P06276 29-602): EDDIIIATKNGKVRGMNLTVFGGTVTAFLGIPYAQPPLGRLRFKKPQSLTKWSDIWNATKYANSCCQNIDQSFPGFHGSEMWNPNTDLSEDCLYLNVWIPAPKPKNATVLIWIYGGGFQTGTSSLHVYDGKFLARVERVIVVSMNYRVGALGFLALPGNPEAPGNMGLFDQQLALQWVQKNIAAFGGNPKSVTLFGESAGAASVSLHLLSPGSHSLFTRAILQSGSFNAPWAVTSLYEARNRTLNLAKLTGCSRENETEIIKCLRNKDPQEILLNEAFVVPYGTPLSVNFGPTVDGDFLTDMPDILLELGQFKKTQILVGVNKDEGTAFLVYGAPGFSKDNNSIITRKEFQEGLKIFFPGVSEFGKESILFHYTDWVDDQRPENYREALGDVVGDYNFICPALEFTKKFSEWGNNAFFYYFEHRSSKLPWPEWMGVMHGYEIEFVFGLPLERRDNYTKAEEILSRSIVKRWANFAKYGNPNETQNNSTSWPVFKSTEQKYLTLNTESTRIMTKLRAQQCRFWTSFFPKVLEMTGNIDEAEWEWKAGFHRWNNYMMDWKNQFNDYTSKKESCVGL
T1 sequence (P05067 672-713): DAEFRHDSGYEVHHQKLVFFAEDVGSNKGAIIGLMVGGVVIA
Description for huAChE: (§2) The AChE and BuChE inhibitory activities of the synthesised compounds were evaluated using the Ellman assay with slight modification. AChE from 5% rat cortex homogenate or human erythrocytes (Sigma Co.). BuChE from rat serum or human serum (Sigma Co.).
Description for huBuChE: as §2
Description for ratAChE: as §2
Description for ratBuChE: as §2

For `COc1cc(/C=C/C(=O)CC(=O)/C=C/c2ccc(O)c(OC)c2)ccc1O` [curcumin, reference compound], the inhibition (in general, the percentage by which the read-out fell short of the control) at 25 µM was determined as 50.6 ± 0.33% on Aβ1–42 [1] and 45.9 ± 0.67% at Aβ1–42 [2].

For `CCN(CCCCCOc1ccc(-c2cc(=O)c3c(O)cc(OCCCCCN(CC)Cc4ccccc4)cc3o2)cc1)Cc1ccccc1` [Compound 10k, 7-((5-(benzyl(ethyl)amino)pentyl)oxy)-2–(4-((5-(benzyl(ethyl)amino)pentyl)oxy)phenyl)-5-hydroxy-4H-chromen-4-one], the SI worked out at 16.4 on ratAChE and 34.6 at huAChE. The IC50 (in general, the concentration at which inhibition is half-maximal) was determined as 0.81 ± 0.05 µM on ratAChE (read-out: IC50 ± SD ratAChE), 13.3 ± 0.27 µM at ratBuChE, 4.5 ± 0.12 µM at huBuChE and 0.13 ± 0.01 µM on huAChE. For the same compound, the ORAC in data set [3] is recorded as 1.1 ± 0.02 μM of Trolox equivalent/μM of tested compound.

On to `CCN(CCCCCOc1ccc(-c2cc(=O)c3c(O)cc(OCCCCCN(CC)Cc4ccccc4OC)cc3o2)cc1)Cc1ccccc1OC` [Compound 10l, 7-((5-(ethyl(2-methoxybenzyl)amino)pentyl)oxy)-2–(4-((5-(ethyl(2-methoxybenzyl)amino)pentyl)oxy)phenyl)-5-hydroxy-4H-chromen-4-one], for which the SI at ratAChE is 23.2; at huAChE, 24.4. In addition, the IC50 is 0.62 ± 0.05 µM at ratAChE (read-out: IC50 ± SD ratAChE), 14.4 ± 0.32 µM at ratBuChE, 2.2 ± 0.18 µM at huBuChE and 0.09 ± 0.002 µM at huAChE. In [3], the ORAC is listed as 1.3 ± 0.03 μM of Trolox equivalent/μM of tested compound.

`O=C1CC(c2ccc(O)cc2)Oc2cc(O)cc(O)c21` (stereo not shown) [naringenin, 5,7-dihydroxy-2–(4-hydroxyphenyl)-2,3-dihydrochromen-4-one, reference compound]: at ratAChE (IC50 ± SD ratAChE), the IC50 was more than 50 µM. The compound further showed an IC50 against ratBuChE of more than 50 µM. Moreover, the oral bioavailability in [4] is reported as 15%. For the same compound, in data set [3], the ORAC values was 5.2 eq and the ORAC is reported as 5.2 ± 0.29 μM of Trolox equivalent/μM of tested compound.

Turning to Vitamine E [reference compound], the cell viability (usually a per cent measure of how many cells are alive, often set against a control) with PC12 cells was found to be 67.6%.

Regarding `COc1cc2c(cc1OC)C(=O)C(CC1CCN(Cc3ccccc3)CC1)C2` (stereo not shown) [donepezil, reference compound], in data set [5], the step-down latency was 219.4 s.

Consider `CCN(CCCCOc1ccc(-c2cc(=O)c3c(O)cc(OCCCCN(CC)Cc4ccccc4)cc3o2)cc1)Cc1ccccc1` [Compound 10h, 7–(4-(benzyl(ethyl)amino)butoxy)-2–(4-(4-(benzyl(ethyl)amino)butoxy)phenyl)-5-hydroxy-4H-chromen-4-one], for which the SI at ratAChE is recorded as 14.0; at huAChE, 23.1. The IC50 at ratAChE (read-out: IC50 ± SD ratAChE) turned out to be 0.92 ± 0.06 µM; at ratBuChE it was 12.9 ± 0.51 µM; on huBuChE, 3.7 ± 0.06 µM; on huAChE, 0.16 ± 0.01 µM. Also, the ORAC in [3] is 1.1 ± 0.03 μM of Trolox equivalent/μM of tested compound.

With `CCn1cc(C(=O)O)c(=O)c2cc(F)c(N3CCNCC3)cc21` [Norfloxacin, reference compound], the Papp (in general, a coefficient for how fast a substance crosses the barrier) at 100 μg/mL in the data set “in vitro” came out at 0.13 ± 0.01 ×10⁻⁶ cm/s.

On ratAChE, `O=C1CC(c2ccc(O)cc2)Oc2cc(OCCCCN3CCCCC3)cc(O)c21` (stereo not shown) [Compound 5a, 5-hydroxy-2–(4-hydroxyphenyl)-7–(4-(piperidin-1-yl)butoxy)chroman-4-one] showed an SI of 3.1. The figures for the IC50 on ratAChE (read-out: IC50 ± SD ratAChE) and on ratBuChE were 6.7 ± 0.31 µM and 20.9 ± 0.68 µM, respectively. For the same compound, in data set [3], the ORAC is 2.2 ± 0.03 μM of Trolox equivalent/μM of tested compound.

The compound `CCN(CCCOc1ccc(C2CC(=O)c3c(O)cc(OCCCN(CC)Cc4ccccc4)cc3O2)cc1)Cc1ccccc1` (stereo not shown) [Compound 7b, 7–(3-(benzyl(ethyl)amino)propoxy)-2–(4-(3-(benzyl(ethyl)amino)propoxy)phenyl)-5-hydroxychroman-4-one] displayed an SI on ratAChE of 2.5. Moreover, the IC50 at ratAChE (read-out: IC50 ± SD ratAChE) came out at 7.4 ± 0.29 µM; against ratBuChE, 18.7 ± 0.37 µM. Also, the ORAC in data set [3] was 1.2 ± 0.04 μM of Trolox equivalent/μM of tested compound.

For `O=c1cc(-c2ccc(O)cc2)oc2cc(O)cc(O)c12` [apigenin, reference compound], the IC50 against ratAChE (IC50 ± SD ratAChE) and at ratBuChE was more than 50 µM throughout. Also, in [3], the ORAC is on record as 5.6 ± 0.52 μM of Trolox equivalent/μM of tested compound.

As for `CCN(CCCCCCOc1ccc(C2CC(=O)c3c(O)cc(OCCCCCCN(CC)Cc4ccccc4)cc3O2)cc1)Cc1ccccc1` (stereo not shown) [Compound 7l], the SI on ratAChE was determined as 6.9. Moreover, the IC50 turned out to be 2.2 ± 0.13 µM on ratAChE (read-out: IC50 ± SD ratAChE) and 15.1 ± 0.28 µM at ratBuChE. The ORAC in data set [3] is given as 1.2 ± 0.01 μM of Trolox equivalent/μM of tested compound.

(Values after paper PMC8881077 (Journal of Enzyme Inhibition and Medicinal Chemistry, 2022).)
